According to article PMC9013686, “Inter-individual variation in chlorpyrifos toxicokinetics characterized by physiologically based kinetic (PBK) and Monte Carlo simulation comparing human liver microsome and Supersome™ cytochromes P450 (CYP)-specific kinetic data as model input” (Archives of Toxicology, 2022):
Where “and” joins values, the source holds several entries; their conditions need not be identical. Equal entries are not always repeated. Marks after values point to notes of the source that are not given here.

Tests used:
PON1 in plasma = test: PON1-catalyzed detoxification of CPO to TCPy in individual human plasma (pathway 4); assay type: in vitro ADME; conditions: for CE / Scaled CE / Vmax / Vmax (app) / Scaled Vmax: CPO to TCPy; for Scaled Vmax: Eq 7
Experimental: After 1 min preincubation in a shaking 37 °C water bath, 1 µl of individual HP was added into the incubation system. Control incubations were performed by replacing plasma with the same amount of 50 mM Tris–HCl (pH 7.4). The total volume of the incubation mixtures was 200 µl. The incubation lasted for 1.5 min at 37 °C and was terminated by addition of 200 µl ice cold ACN and subsquently put on ice. Samples were subsequently centrifuged at 16,000 g (4 ℃) for 5 min and analyzed by UPLC-PDA. […]
In pathway 4, the in vivo VmaxHP (µmol/h) was extrapolated from its corresponding mean of the apparent VmaxHP(app) (nmol/min/ml plasma) of 25 individuals HP using Eq. 7:7 VmaxHP=VmaxHP(app)×60×1000×VB×0.55/1000,

[1] = test system: paraoxonase1 (PON1) in liver; conditions: Pathway 3 (CPO to TCPy in liver); pooled HLMs; ref Zhao et al. ([2019]); cited from earlier work

## CCOP(=O)(OCC)Oc1nc(Cl)c(Cl)cc1Cl [CPO, chlorpyrifos-oxon]
PON1 in plasma; CPO detoxification in plasma of 25 individuals
  difference between the highest and the lowest CE: around 2.6 fold
PON1 in plasma; plasma individual 1 (64)
  CE: 4.1 ml/min/ml plasma
  Scaled CE: 750.1 L/h
  Vmax: 1596 nmol/min/ml plasma
  Vmax (app): 21.78 nmol/min/mg plasma protein
  Scaled Vmax: 291247 µmol/h
PON1 in plasma; plasma individual 2 (65)
  CE: 4.0 ml/min/ml plasma
  Scaled CE: 724.7 L/h
  Vmax: 1233 nmol/min/ml plasma
  Vmax (app): 17.32 nmol/min/mg plasma protein
  Scaled Vmax: 224952 µmol/h
PON1 in plasma; plasma individual 3 (56)
  CE: 6.4 ml/min/ml plasma
  Scaled CE: 1172.4 L/h
  Vmax: 2439 nmol/min/ml plasma
  Vmax (app): 32.15 nmol/min/mg plasma protein
  Scaled Vmax: 445176 µmol/h
PON1 in plasma; plasma individual 4 (52)
  CE: 5.0 ml/min/ml plasma
  Scaled CE: 915.9 L/h
  Vmax: 1591 nmol/min/ml plasma
  Vmax (app): 22.39 nmol/min/mg plasma protein
  Scaled Vmax: 290427 µmol/h
PON1 in plasma; plasma individual 5 (51)
  CE: 5.2 ml/min/ml plasma
  Scaled CE: 939.9 L/h
  Vmax: 3284 nmol/min/ml plasma
  Vmax (app): 45.36 nmol/min/mg plasma protein
  Scaled Vmax: 599306 µmol/h
PON1 in plasma; plasma individual 6 (57)
  CE: 5.7 ml/min/ml plasma
  Scaled CE: 1047.5 L/h
  Vmax: 1878 nmol/min/ml plasma
  Vmax (app): 23.22 nmol/min/mg plasma protein
  Scaled Vmax: 342626 µmol/h
PON1 in plasma; plasma individual 7
  CE: 7.9 ml/min/ml plasma
  Scaled CE: 1441.5 L/h
  Vmax: 1203 nmol/min/ml plasma
  Vmax (app): 14.99 nmol/min/mg plasma protein
  Scaled Vmax: 219543 µmol/h
PON1 in plasma; plasma individual 8
  CE: 7.3 ml/min/ml plasma
  Scaled CE: 1332.3 L/h
  Vmax: 1663 nmol/min/ml plasma
  Vmax (app): 21.31 nmol/min/mg plasma protein
  Scaled Vmax: 303506 µmol/h
PON1 in plasma; plasma individual 9
  CE: 7.6 ml/min/ml plasma
  Scaled CE: 1391.7 L/h
  Vmax: 2157 nmol/min/ml plasma
  Vmax (app): 27.46 nmol/min/mg plasma protein
  Scaled Vmax: 393583 µmol/h
PON1 in plasma; plasma individual 10
  CE: 9.2 ml/min/ml plasma
  Scaled CE: 1671.6 L/h
  Vmax: 2370 nmol/min/ml plasma
  Vmax (app): 28.9 nmol/min/mg plasma protein
PON1 in plasma; plasma individual 11
  CE: 6.4 ml/min/ml plasma
  Scaled CE: 1168.7 L/h
  Vmax: 1314 nmol/min/ml plasma
  Vmax (app): 17.42 nmol/min/mg plasma protein
  Scaled Vmax: 239710 µmol/h
PON1 in plasma; plasma individual 12
  CE: 8.2 ml/min/ml plasma
  Scaled CE: 1500.5 L/h
  Vmax: 2461 nmol/min/ml plasma
  Vmax (app): 26.75 nmol/min/mg plasma protein
  Scaled Vmax: 449105 µmol/h
PON1 in plasma; plasma individual 13
  CE: 6.6 ml/min/ml plasma
  Scaled CE: 1211.5 L/h
  Vmax: 1498 nmol/min/ml plasma
  Vmax (app): 20.58 nmol/min/mg plasma protein
  Scaled Vmax: 273437 µmol/h
PON1 in plasma; plasma individual 14
  CE: 5.8 ml/min/ml plasma
  Scaled CE: 1053.7 L/h
  Vmax: 2064 nmol/min/ml plasma
  Vmax (app): 28.36 nmol/min/mg plasma protein
  Scaled Vmax: 376692 µmol/h
PON1 in plasma; plasma individual 15
  CE: 9.8 ml/min/ml plasma
  Scaled CE: 1793.2 L/h
  Vmax: 1840 nmol/min/ml plasma
  Vmax (app): 24.79 nmol/min/mg plasma protein
  Scaled Vmax: 335867 µmol/h
PON1 in plasma; plasma individual 16
  CE: 3.7 ml/min/ml plasma
  Scaled CE: 671.6 L/h
  Vmax: 912 nmol/min/ml plasma
  Vmax (app): 11.28 nmol/min/mg plasma protein
  Scaled Vmax: 166366 µmol/h
PON1 in plasma; plasma individual 17
  CE: 8.1 ml/min/ml plasma
  Scaled CE: 1480.1 L/h
  Vmax: 2287 nmol/min/ml plasma
  Vmax (app): 32.03 nmol/min/mg plasma protein
  Scaled Vmax: 417377 µmol/h
PON1 in plasma; plasma individual 18
  CE: 5.6 ml/min/ml plasma
  Scaled CE: 1029.2 L/h
  Vmax: 1132 nmol/min/ml plasma
  Vmax (app): 15.18 nmol/min/mg plasma protein
  Scaled Vmax: 206569 µmol/h
PON1 in plasma; plasma individual 19 (48)
  CE: 5.3 ml/min/ml plasma
  Scaled CE: 971.2 L/h
  Vmax: 1329 nmol/min/ml plasma
  Vmax (app): 18.21 nmol/min/mg plasma protein
  Scaled Vmax: 242612 µmol/h
PON1 in plasma; plasma individual 20 (49)
  CE: 6.9 ml/min/ml plasma
  Scaled CE: 1252.4 L/h
  Vmax: 2111 nmol/min/ml plasma
  Vmax (app): 24.85 nmol/min/mg plasma protein
  Scaled Vmax: 385226 µmol/h
PON1 in plasma; plasma individual 21 (44)
  CE: 6.5 ml/min/ml plasma
  Scaled CE: 1181.9 L/h
  Vmax: 1835 nmol/min/ml plasma
  Vmax (app): 23.05 nmol/min/mg plasma protein
  Scaled Vmax: 334943 µmol/h
PON1 in plasma; plasma individual 22 (34)
  CE: 7.3 ml/min/ml plasma
  Scaled CE: 1325.9 L/h
  Vmax: 1726 nmol/min/ml plasma
  Vmax (app): 24.05 nmol/min/mg plasma protein
  Scaled Vmax: 315041 µmol/h
PON1 in plasma; plasma individual 23 (47)
  CE: 5.7 ml/min/ml plasma
  Scaled CE: 1044.7 L/h
  Vmax: 2141 nmol/min/ml plasma
  Vmax (app): 24.05 nmol/min/mg plasma protein
  Scaled Vmax: 390628 µmol/h
PON1 in plasma; plasma individual 24 (28)
  CE: 8.7 ml/min/ml plasma
  Scaled CE: 1595.0 L/h
  Vmax: 2357 nmol/min/ml plasma
  Vmax (app): 28.44 nmol/min/mg plasma protein
  Scaled Vmax: 430169 µmol/h
PON1 in plasma; plasma individual 25 (41)
  CE: 7.1 ml/min/ml plasma
  Scaled CE: 1293.4 L/h
  Vmax: 1676 nmol/min/ml plasma
  Vmax (app): 22.13 nmol/min/mg plasma protein
  Scaled Vmax: 305884 µmol/h
PON1 in plasma; Pathway 4 (CPO to TCPy in plasma), mean of 25 individual HP samples
  Vmax (mean): 1844 nmol/min/ml plasma and 1844.000^i nmol/min/ml plasma
[1]
  Km: 628 µM
  Vmax: 37.980 ^e nmol/min/mg microsomal protein
